Measurements published in patent US20220062429A1, “METHOD FOR ENHANCING EXPRESSION OF MOISTURIZING-RELATED SUBSTANCE IN EPIDERMIS” (J-Network, Inc., priority 2020, published 2022).

Key:
Assay type in all cases: cell-based
filaggrin [1] = assay: Test 1 on promotion of filaggrin production: filaggrin immunostaining of human three-dimensional cultured epidermis model; details: 2%, 3.5% solutions in PBS(−) (Samples 2-4)
Procedure: After samples were prepared using a human epidermis model, production of filaggrin was observed by applying two staining methods, that is, an immunostaining method using an anti-filaggrin antibody and the method of Hematoxylin Eosin staining.
A human three-dimensional cultured epidermis model (hereinafter, “epidermis model”) (LabCyteEPI-MODEL24 6D: from Japan Tissue Engineering Co., Ltd.) was subjected to treatment in the following manner to prepare samples.
First, the epidermis model was incubated in an agar medium at room temperature for 24 hours. Thereafter, the epidermis model was cultured in a medium (an assay medium: from Japan Tissue Engineering Co., Ltd.) at 37° C. for 48 hours. […]
Thereafter, an anti-filaggrin antibody (from GeneTex, Inc.) was made to react with that section at 37° C. overnight, and an anti-mouse IgG Alexa Fluor (registered trademark) 488 antibody (from Cell Signaling Technology, Inc.) was further made to react at 37° C. for 2 hours. […] Then, green fluorescence and blue fluorescence were observed using a fluorescence microscope. The green fluorescence indicates the presence of filaggrin. The blue fluorescence is for confirming that there is no abnormality in cells of the epidermis model.

profilaggrin mRNA = assay: Amplification test of profilaggrin mRNA (quantitative real-time PCR) in normal human epidermal cells; details: for expression of profilaggrin mRNA, relative to N.C. = 100%: corrected with cyclophilin
Procedure: After samples were prepared using human epidermal cells, RNA of the cells was extracted and the quantity of mRNA of profilaggrin was determined.
Normal human epidermal cells (hereinafter, “epidermal cells”) (from Kurabo Industries Ltd.) were seeded at a cell density of 2.0×10^4 cells/well in a 96-well culture plate using a growth medium (KG2 medium: from Kurabo Industries Ltd.). After the cells were cultured at 37° C. under 5% carbon dioxide for 24 hours, the media were replaced with media (KB2 media not containing bovine pituitary extract: from Kurabo Industries Ltd.) to which Samples 11 to 18 described below were respectively added. Each of Samples 11, 14, and 17 as controls is a medium only. Samples 12, 13, 15, 16, and 18 are different from one another in the type and/or concentration (mass % with respect to the medium) of a diacylglycerol PEG adduct. • Sample 11: Control (N.C.) • Sample 12: GDS12 (0.100%) • Sample 13: GDS12 (0.050%) • Sample 14: Control (N.C.) • Sample 15: GDM12 (0.001%) • Sample 16: GDM12 (0.004%) • Sample 17: Control (N.C.) • Sample 18: GDS23 (0.002%)
Thereafter, the epidermal cells were cultured at 37° C. under 5% carbon dioxide for 3 hours. Subsequently, RNA was extracted from the cells.
(§1) Reverse transcription of the extracted RNA was performed to generate cDNA, and the quantity of profilaggrin mRNA was determined by quantitative real-time PCR expression analysis. Cyclophilin was used as an internal standard. In the analysis, the expression level of profilaggrin was corrected with a value of the expression level of cyclophilin as the internal standard in the same sample, and thereafter the correction value for each sample was calculated assuming the correction value for the control N.C. as 100%.

caspase-14 mRNA = assay: Caspase-14 mRNA expression (quantitative real-time PCR) in normal human epidermal cells; details: for expression of caspase-14 mRNA versus N.C. / expression of caspase-14 mRNA, relative to N.C. = 100%: 3 hours; for expression of caspase-14 mRNA, relative to N.C. = 100%: corrected with cyclophilin
Procedure: After samples were prepared using human epidermal cells, RNA of the cells was extracted and the quantity of caspase-14 mRNA was determined.
Normal human epidermal cells (hereinafter, “epidermal cells”) (from Kurabo Industries Ltd.) were seeded at a cell density of 2.0×10^4 cells/well in a 96-well culture plate using a growth medium (KG2 medium: from Kurabo Industries Ltd.). After the cells were cultured at 37° C. under 5% carbon dioxide for 24 hours, the media were replaced with media (KB2 media not containing bovine pituitary extract: from Kurabo Industries Ltd.) to which Samples 19 to 26 described below were respectively added. Each of Samples 19 and 24 as controls is a medium only. Samples 20, 21, 22, 23, and 25 are different from one another in the type and/or concentration (mass % with respect to the medium) of a diacylglycerol PEG adduct contained in the medium. • Sample 19: Control (N.C.) • Sample 20: GDM12 (0.001%) • Sample 21: GDM12 (0.004%) • Sample 22: GDM12 (0.020%) • Sample 23: GDM12 (0.100%) • Sample 24: Control (N.C.) • Sample 25: GDS23 (0.0004%)
Subsequently, the epidermal cells were cultured at 37° C. under 5% carbon dioxide for 3 hours. Subsequently, RNA was extracted from the cells.
as §1, with “of caspase-14” for “of profilaggrin”, “value of” for “value for”, “was calculated,” for “was calculated”, “control sample” for “control N.C.”

filaggrin [2] = assay: Test 2 on promotion of filaggrin production: dot blotting in normal human epidermal cells; details: 72 hours
Procedure: After samples were prepared using human epidermal cells, production of filaggrin was observed by dot blotting and the quantity of filaggrin was determined.
Normal human epidermal cells (hereinafter, “epidermal cells”) (from Kurabo Industries Ltd.) were seeded at a cell density of 1.0×10^4 cells/well in a 96-well culture plate using a growth medium (KG2 medium: from Kurabo Industries Ltd.). After the cells were cultured at 37° C. under 5% carbon dioxide for 24 hours, the medium was replaced with media (KB2 media not containing bovine pituitary extract: from Kurabo Industries Ltd.) to which Samples 5 to 10 described below were respectively added. Each of Samples 5 and 8 as controls is a medium only. Samples 6, 7, 9, and 10 are different from one another in the type and/or concentration (mass % with respect to the medium) of a diacylglycerol PEG adduct to be added to the medium. • Sample 5: Control (N.C.) • Sample 6: GDM12 (0.0005%) • Sample 7: GDM12 (0.0010%) • Sample 8: Control (N.C.) • Sample 9: GDS23 (0.0025%) • Sample 10: GDS23 (0.0050%)
Thereafter, for each sample, the epidermal cells were cultured at 37° C. under 5% carbon dioxide for 72 hours. Subsequently, the epidermal cells were cleaned with PBS(−), 0.5% Triton X-100 (containing 2 mM PMSF) was then added, and thereafter the cells were disrupted by sonication.
A fixed amount of the suspension of disrupted cells was blotted on a nitrocellulose membrane and dried overnight. The transfer membrane after drying was immersed in a PBS solution of 1% BSA and blocked at room temperature for 1 hour. Thereafter, the membrane was cleaned with PBS(−), and an anti-human filaggrin antibody (Anti-Filaggrin: from ARGENE SA) was added onto the transfer membrane at a dilution concentration of 1:4000. The mixture was made to react at room temperature for 1 hour, and then the transfer membrane was cleaned with a PBS solution.
Thereafter, an immunohistochemical staining reagent (Histofine Simple Stain MAX-PO(M): from Nichirei Biosciences Inc.) was added onto the transfer membrane at a dilution concentration of 1:100 and was made to react at room temperature for 1 hour. […]
The brightness of each spot in the spot image obtained by dot blotting was quantitively determined using an analyzer (CS Analyzer Version 2.0: from ATTO Corporation).
FIG. 2a illustrates respective spot images for Samples 5, 6 and 7 related to GDM12, and FIG. 2b illustrates the production quantity of filaggrin for each sample determined based on FIG. 2a. The vertical axis of the graph represents the relative quantity when the quantity for the control N.C. is assumed as 100% (the same representation is also applied to graphs in drawings that will be described later).

Substance: PEG-12 glycerol dimyristate [GDM12]
- concentration dependence of production quantity of filaggrin (filaggrin [1]): more as the concentration of the GDM12 solution is higher
- production quantity of filaggrin in the stratum corneum (green fluorescence) versus N.C. (filaggrin [1]; 30 μL on stratum corneum, 18 hours, model recovered 6 days after application): more than that of the epidermis model of N.C.
- increase of expression of profilaggrin mRNA versus N.C. (profilaggrin mRNA; 0.001% in medium (Sample 15), 3 hours): slight
- expression of profilaggrin mRNA, relative to N.C. = 100% (profilaggrin mRNA; 0.004% in medium (Sample 16), 3 hours): about 150%
- expression of caspase-14 mRNA versus N.C. (caspase-14 mRNA; 0.001% in medium (Sample 20)): increased
- expression of caspase-14 mRNA versus N.C. (caspase-14 mRNA; 0.004% in medium (Sample 21)): increased
- expression of caspase-14 mRNA, relative to N.C. = 100% (caspase-14 mRNA; 0.020% in medium (Sample 22)): about 200%
- expression of caspase-14 mRNA, relative to N.C. = 100% (caspase-14 mRNA; 0.100% in medium (Sample 23)): about 400%
- concentration dependence of increase of caspase-14 mRNA (caspase-14 mRNA; Samples 20-23 (0.001% to 0.100%)): the increase is larger as the concentration of GDM12 is higher
- production quantity of filaggrin, relative to N.C. = 100% (filaggrin [2]; 0.0005% in medium (Sample 6)): ≥ 200%
- production quantity of filaggrin, relative to N.C. = 100% (filaggrin [2]; 0.0010% in medium (Sample 7)): ≥ 200%

Substance: PEG-12 glycerol distearate [GDS12]
- expression of profilaggrin mRNA, relative to N.C. = 100% (profilaggrin mRNA; 0.050% in medium (Sample 13), 3 hours): about 150%
- expression of profilaggrin mRNA, relative to N.C. = 100% (profilaggrin mRNA; 0.100% in medium (Sample 12), 3 hours): about 150%
- concentration dependence of increase of profilaggrin mRNA (profilaggrin mRNA; Samples 12 and 13 (0.100%, 0.050%)): the increase is larger as the concentration of GDS12 is higher

Substance: PEG-23 glycerol distearate [GDS23]
- expression of profilaggrin mRNA, relative to N.C. = 100% (profilaggrin mRNA; 0.002% in medium (Sample 18), 3 hours): about 120%
- expression of caspase-14 mRNA, relative to N.C. = 100% (caspase-14 mRNA; 0.0004% in medium (Sample 25)): about 150%
- production quantity of filaggrin, relative to N.C. = 100% (filaggrin [2]; 0.0025% in medium (Sample 9)): about 200%
- production quantity of filaggrin, relative to N.C. = 100% (filaggrin [2]; 0.0050% in medium (Sample 10)): about 200%
